Results taken from patent US20220267390A1, “MPS MODIFIED PEPTIDES AND USE THEREOF” (The Regents of the University of California, priority 2019, published 2022).
Where a SMILES comes first, the peptide text is derived from it. [ ]: non-standard residue; d: D form.

Columns and labels:
H1650 cells = format: cell-based
Description: IC50 (half maximal inhibitory concentration; μM) values in lung cancer cells. […] The residues marked in red/bold are D-isoforms of amino acids (SEQ ID NOS: 57, 48-54, 40-42 45 and 47 in order of appearance).
Molecular basis of MPS peptide and its potential for increasing nintedanib efficacy. […] A kinetic assay confirmed that this peptide binds PIP2 with a dissociation constant of 17.64 nM (FIG. 10B). As expected, a decrease of PIP3 pools in whole cell lysates of MPS-treated IPF fibroblasts was observed (FIG. 10C), supporting the notion that MPS peptide is able to inhibit AKT activation through trapping PIP2. In view of adverse effects of the current IPF therapeutic nintedanib^9, 10, there is an urgent clinical need to improve the efficacy of such treatment in IPF. Since the TGF-β receptor is not a direct target of nintedanib, targeting an element of TGF-β signaling in tandem with nintedanib administration circumvents the shortcomings of nintedanib monotherapy. […] Based on the above observations, it is assumed that TGF-β-directed phospho-MARCKS is a bypass mechanism of activating PI3K/AKT signaling (FIG. 11B); therefore, it seems reasonable that MARCKS inhibition by MPS treatment may improve nintedanib efficacy, permitting lower doses of nintedanib to be used. To this end, the possibility of a synergistic interaction between MPS and nintedanib in order to circumvent the shortcomings of nintedanib monotherapy was tested. […] Furthermore, the Chou and Talalay CI (combination index) method^25 was used to evaluate the therapeutic interactions between nintedanib and MPS peptide. […] Particularly, the values were lower than 1 at ED50, approximately 1 at ED75, and above 1 at ED90 (data not shown). Thus, the combination effect was dose-dependently correlated with the components, and therefore low dose nintedanib in combination with low dose of MPS presents a synergistic effect on cell proliferation. […] On the basis of the sequences of MPS peptide, the rearrangement of PIP2-binding sites in this peptide were designed and synthesized with the intention of enhancing the efficacy and stability of the MPS peptide. FIG. 13 lists the sequences of various MPS derivatives. In light of the cleavage sites of various proteases and PIP2 binding motifs, Applicant replaced some L-isoform amino acids with D-isoform and these peptides were named as MPS-12042 and MPS-22026. To further validate the efficacy of the above MPS derivatives, Applicant performed a dose-course analysis of H1650 cells undergoing each MPS derivative treatment.

IPF fibroblast cells = assay: cells; format: cell-based, human
Description: (§1) FIG. 14: Comparison of MPS-12042 (SEQ ID NO: 45) versus know tyrosine kinase inhibitor (TKLs) on the treatment of IPF fibroblast cells. Both normal and IPF lung fibroblast cells were treated with various drugs. After 72 hours, cells were subjected to MTT assays and IC50 for each drug was determined.
Human primary fibroblast cells were obtained from airway tissues provided from the UC Davis Medical Hospital (Sacramento, Calif.) with consent. The protocol for human tissue procurement and usage were periodically reviewed and approved by the University Human Subject Research Review Committee. Primary fibroblast cell lines, IPF-1 and IPF-2 cells, were established from IPF patients. Cells were obtained from lung biopsies and the diagnosis of IPF was supported by patient history, physical examination, pulmonary function tests, and typical high-resolution chest computed tomography findings of IPF. […] All patients fulfilled the criteria for the diagnosis of IPF as established by the American Thoracic Society and European Respiratory Society. Non-fibrotic primary control adult human lung fibroblast lines, Normal-1 and Normal-2 cells were used. These lines were established from normal lung tissue or histologically normal lung tissue adjacent to carcinoid tumor. The IPF cell line, LL97A, was purchased from the American Type Culture Collection (ATCC) (Manassas, Va.). Lung fibroblast lines were cultured in high-glucose DMEM or RPMI-1640 medium with 10% fetal bovine serum and 1% penicillin-streptomycin at 37° C. in a humidified atmosphere of 5% CO2. Fibroblasts were used between passages 4 and 8. Cells were characterized as fibroblasts as described^26.
Cells were seeded onto 96-well plates at a density of 5-10×10^3 cells per well and cultured for the indicated treatment. Cell proliferation was evaluated using a MTS assay kit (Promega, Madison, Wis.). Twenty microliters of the combined MTS/PMS solution was added into each well, incubated for 3 hours at 37° C., and the absorbance was measured at 490 nm by using an ELISA reader. For Trypan blue test, cells were plated on 12-well plates and treated with the indicated chemotherapeutic agents. After 72 hours, both attached and detached cells were collected and then stained with 0.2% trypan blue (0.1% final concentration), and the number of trypan blue-positive and -negative cells was counted using a haemocytometer under low-power microscopy. For colony-forming assays, 200 cells were seeded in each well of six-well plates. IPF-1 or IPF-2 primary cells were treated with peptides at the indicated concentrations for 10 days. Colonies were stained using 0.001% crystal violet and the number of colonies with a diameter greater than 0.5 mm was counted under an inverted microscope.

normal fibroblasts = assay: Normal lung fibroblast proliferation (MTS/MTT assay); format: cell-based, human; details: 1 μM
Description: as §1
Human primary fibroblast cells were obtained from airway tissues provided from the UC Davis Medical Hospital (Sacramento, Calif.) with consent. The protocol for human tissue procurement and usage were periodically reviewed and approved by the University Human Subject Research Review Committee. Primary fibroblast cell lines, IPF-1 and IPF-2 cells, were established from IPF patients. […]
Cells were seeded onto 96-well plates at a density of 5-10×10^3 cells per well and cultured for the indicated treatment. Cell proliferation was evaluated using a MTS assay kit (Promega, Madison, Wis.). Twenty microliters of the combined MTS/PMS solution was added into each well, incubated for 3 hours at 37° C., and the absorbance was measured at 490 nm by using an ELISA reader. […] After 72 hours, both attached and detached cells were collected and then stained with 0.2% trypan blue (0.1% final concentration), and the number of trypan blue-positive and -negative cells was counted using a haemocytometer under low-power microscopy. […]

[1] = tested on: bleomycin-induced pulmonary fibrosis; assay: Bleomycin-induced pulmonary fibrosis; format: in vivo, C57BL/6J mice; details: 7 mg/kg i.p. every two days, against nintedanib (28 mg/kg) and MPS peptide (28 mg/kg)
Description: FIGS. 20A and 20B show suppressive effects of MPS peptide on pulmonary fibrosis in vivo. C57BL/6 mice were intraperitoneally given either PBS, nintedanib (28 mg/kg), MPS peptide (28 mg/kg) or MPS-12042 (7 mg/kg) at the dosage of every two days after 9 days of intratracheal exposure with one shot of saline or bleomycin (33 μg in […] of saline, n=5). (FIG. 20A) Representative Masson trichrome and immunohistochemical staining of phospho-MARCKS (Ser159/163) and phospho-AKT (Ser473) (n=6). (FIG. 20B) Hydroxyproline level in the left lung of mice as described above was determined by a hydroxyproline ELISA assay (mean±SD, *p<0.05).
MPS peptide potentially serves as an antifibrotic agent in bleomycin-induced pulmonary fibrosis. Bleomycin remains the standard agent for induction of experimental pulmonary fibrosis in animals^23. Thus, 8-week-old female C57BL/6J mice received saline or bleomycin intratracheally (33 μg in […] of saline) as previously described^23. Lung specimens from bleomycin- or saline-treated mice were collected and subjected to immunofluorescence staining. […] Next, lung fibroblast cells isolated from saline- or bleomycin-treated mice (two mice fibroblast cell lines were gifts from Dr. Sem H. Phan, University of Michigan School of Medicine, MI) were incubated with either 100 μM control or MPS peptide for 48 hours. […]

CC(C)C[C@@H](NC(=O)[C@@H](CCCCN)NC(=O)[C@@H](Cc1ccccc1)NC(=O)[C@H](C)NC(=O)[C@H](CCCCN)NC(=O)[C@@H](CCCCN)NC(=O)[C@@H](Cc1ccccc1)NC(=O)[C@H](C)NC(=O)[C@@H](Cc1ccccc1)NC(=O)[C@@H](CCCNC(=N)N)NC(=O)[C@H](CCCCN)NC(=O)[C@H](CCCCN)NC(=O)[C@H](CCCCN)NC(=O)[C@H](CCCCN)NC(=O)[C@@H](N)CCCCN)C(=O)N[C@@H](C)C(=O)NCC(=O)N[C@H](Cc1ccccc1)C(=O)N[C@H](C)C(=O)N[C@H](Cc1ccccc1)C(=O)N[C@H](CCCCN)C(=O)N[C@@H](CCCCN)C(=O)N[C@@H](CC(N)=O)C(=O)N[C@H](CCCCN)C(=O)N[C@@H](CCCCN)C(=O)O [MPS-12042] (H-KKKKK[dR][dF]A[dF][dK]KA[dF][dK][dL]AG[dF][dA][dF][dK]KN[dK]K-OH; N-terminus and C-terminus assumed)
IC50 (H1650 cells): 6 µM | decreased cell proliferation (IPF fibroblast cells; 1 μM, IPF fibroblast): 50% | IC50 (IPF fibroblast cells; 72 h): 1 to 1.5 µM | decreased cell proliferation (normal fibroblasts): not in normal fibroblasts | attenuating phospho-MARCKS and phospho-AKT, reducing overall fibrosis and extracellular matrix deposition in mouse lungs [1]: superior efficacy
